Assays:
[1] = target: T1, mOR18-2 (Mus musculus, UniProt Q8VBV9); format: cell-based
T1 construct: expressed in transfected cells
T1 sequence (Q8VBV9 1-320): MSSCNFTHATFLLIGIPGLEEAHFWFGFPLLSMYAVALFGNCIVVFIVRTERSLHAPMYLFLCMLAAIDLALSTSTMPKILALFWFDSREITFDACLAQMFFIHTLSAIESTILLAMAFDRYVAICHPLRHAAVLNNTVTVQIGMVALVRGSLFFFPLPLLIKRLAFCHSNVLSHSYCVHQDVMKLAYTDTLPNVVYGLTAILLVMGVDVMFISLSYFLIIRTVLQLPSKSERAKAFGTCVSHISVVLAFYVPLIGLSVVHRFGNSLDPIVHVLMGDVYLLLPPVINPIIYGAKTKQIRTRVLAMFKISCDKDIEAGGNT

[2] = tested on: mOR178-1; format: cell-based, mouse
[3] = tested on: mOR18-1; format: cell-based, Mus musculus
[4] = target: T2, OR2W1 (Homo sapiens, UniProt Q9Y3N9); format: cell-based
T2 construct: expressed in transfected cells
T2 sequence (Q9Y3N9 1-320): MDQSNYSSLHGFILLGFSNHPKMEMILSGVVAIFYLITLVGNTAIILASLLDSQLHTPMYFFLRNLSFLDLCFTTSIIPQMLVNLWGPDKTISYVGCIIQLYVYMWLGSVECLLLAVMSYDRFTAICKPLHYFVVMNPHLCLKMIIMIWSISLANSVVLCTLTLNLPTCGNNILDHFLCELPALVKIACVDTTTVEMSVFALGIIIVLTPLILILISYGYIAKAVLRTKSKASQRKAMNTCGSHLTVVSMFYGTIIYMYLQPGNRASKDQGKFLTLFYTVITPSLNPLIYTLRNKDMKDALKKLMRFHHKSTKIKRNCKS

Measured: receptor response as measured levels of luminescence

CCN(CC)C(=O)[C@@H]1C=C2c3cccc4[nH]cc(c34)C[C@H]2N(C)C1 [LSD]
responded: all assays above

c1ccc(C2(N3CCCCC3)CCCCC2)cc1 [PCP]
responded: all assays above

CC(=O)Oc1ccc2c3c1O[C@H]1[C@@H](OC(C)=O)C=C[C@H]4[C@@H](C2)N(C)CC[C@@]341 [heroine]
responded: all assays above

Reference: patent US20230003720A1 (priority 2016, published 2023)
